Measured values as given in ChEMBL document CHEMBL1125238, “A new class of calcium antagonists. Synthesis and biological activity of 11-[(omega-aminoalkanoyl)amino]-6,6a,7,8,9,10,10a,11-octahydrodibenzo [b,e]thiepin derivatives” (J Med Chem, 1991).

species on record: Rattus norvegicus; test: Calcium antagonistic activity assessed against calcium-induced constriction of potassium-depolarized rat aorta.; assay type: functional; details: not given

Compared with `O=C(CCCN1CCN(c2ccccc2)CC1)N[C@H]1c2ccccc2SC[C@@H]2CCCC[C@H]21.O=C(O)C(=O)O`, `O=C(CCCN1CCN(c2ccc(F)cc2)CC1)N[C@H]1c2ccccc2[S+]([O-])C[C@@H]2CCCC[C@H]21` (stereo in doubt; 48) is lower in pA2: 7.68 for the first, 6.48 for the second.

same assay, conditions: Rattus norvegicus, Aorta; read-out: pA2 (converted)

`O=C(CCCCCN1CCN(c2ccccc2)CC1)N[C@H]1c2ccccc2SC[C@@H]2CCCC[C@H]21` and `O=C(CCCCN1CCN(c2ccccc2)CC1)N[C@H]1c2ccccc2SC[C@@H]2CCCC[C@H]21` are within 1.5-fold of each other in Kb: 0.0302 µM for the first, 0.0282 µM for the second.

First: O=C(CCN1CCN(c2ccccc2)CC1)N[C@H]1c2ccccc2SC[C@@H]2CCCC[C@H]21
Second: O=C(CN1CCN(c2ccccc2)CC1)N[C@H]1c2ccccc2SC[C@@H]2CCCC[C@H]21
The Kb of the first is 2.5-fold lower: 0.0417 µM for the first, 0.105 µM for the second.

Going from `Cc1ccc(N2CCN(CCCC(=O)N[C@H]3c4ccccc4SC[C@@H]4CCCC[C@H]43)CC2)cc1` to `O=C(CCCN1CCN(c2ccc(F)cc2)CC1)N[C@@H]1c2ccccc2SC[C@@H]2CCCC[C@@H]21`, the Kb falls from 0.0708 µM to 0.0186 µM (3.8-fold).

Going from `O=C(CCCN1CCN(C/C=C/c2ccccc2)CC1)N[C@H]1c2ccccc2SC[C@@H]2CCCC[C@H]21` to `O=C(CCCN1CCN(Cc2ccccc2)CC1)N[C@H]1c2ccccc2SC[C@@H]2CCCC[C@H]21`, the Kb falls from 0.0759 µM to 0.0158 µM (4.8-fold).

Compared with `O=C(CCCN1CCN(c2ccc(F)cc2)CC1)N[C@H]1c2ccccc2OC[C@@H]2CCCC[C@H]21`, `O=C(CCCN1CCN(c2ccc(F)cc2)CC1)N[C@H]1c2ccccc2SC[C@@H]2CCCC[C@H]21` is 20-fold lower in Kb: 0.138 µM for the first, 0.00692 µM for the second.

First: O=C(CCCN1CCN(Cc2ccc([N+](=O)[O-])cc2)CC1)N[C@H]1c2ccccc2SC[C@@H]2CCCC[C@H]21
Second: O=C(CCCN1CCN(Cc2ccc(F)cc2)CC1)N[C@H]1c2ccccc2SC[C@@H]2CCCC[C@H]21
The Kb of the first is 3-fold lower: 0.0191 µM for the first, 0.0575 µM for the second.

`O=C(CCCN1CCN(C(c2ccccc2)c2ccccc2)CC1)N[C@H]1c2ccccc2SC[C@@H]2CCCC[C@H]21` and `O=C(CCCN1CCN(c2cccc3ccccc23)CC1)N[C@H]1c2ccccc2SC[C@@H]2CCCC[C@H]21` are within 1.5-fold of each other in Kb: 0.0407 µM for the first, 0.0575 µM for the second.

Compared with `O=C(CCCN1CCN(c2ccc(O)cc2)CC1)N[C@H]1c2ccccc2SC[C@@H]2CCCC[C@H]21`, `O=C(CCCN1CCN(c2ccc(Cl)cc2)CC1)N[C@H]1c2ccccc2SC[C@@H]2CCCC[C@H]21` is 4.6-fold lower in Kb: 0.0692 µM for the first, 0.0151 µM for the second.

`O=C(CCCN1CCN(c2ccc(F)cc2)CC1)N[C@H]1c2cc(Cl)ccc2SC[C@@H]2CCCC[C@H]21` and `O=C(CCCN1CCN(c2ccc(F)cc2)CC1)N[C@H]1c2cc(F)ccc2SC[C@@H]2CCCC[C@H]21` are within 1.5-fold of each other in Kb: 0.0813 µM for the first, 0.0776 µM for the second.

Compared with `O=C(CCCN1CCN(c2ccc(F)cc2)CC1)N[C@H]1c2ccccc2SC[C@@H]2CCCC[C@@H]21`, `O=C(CCCN1CCN(c2ccc(F)cc2)CC1)N[C@@H]1c2ccccc2SC[C@@H]2CCCC[C@H]21` is 3.8-fold higher in Kb: 0.00708 µM for the first, 0.0269 µM for the second.

Compared with `O=C(CCCN1CCN(Cc2cccc(F)c2)CC1)N[C@H]1c2ccccc2SC[C@@H]2CCCC[C@H]21`, `O=C(CCCN1CCN(c2cccc(F)c2)CC1)N[C@H]1c2ccccc2SC[C@@H]2CCCC[C@H]21` is 2-fold lower in Kb: 0.0302 µM for the first, 0.0151 µM for the second.

Compared with `COc1ccccc1N1CCN(CCCC(=O)N[C@H]2c3ccccc3SC[C@@H]3CCCC[C@H]32)CC1`, `COc1ccc(N2CCN(CCCC(=O)N[C@H]3c4ccccc4SC[C@@H]4CCCC[C@H]43)CC2)cc1` is 1.9-fold lower in Kb: 0.0468 µM for the first, 0.0251 µM for the second.

`O=C(CCCN1CCN(C(=O)c2ccccc2)CC1)N[C@H]1c2ccccc2SC[C@@H]2CCCC[C@H]21` and `O=C(CCCN1CCN(CCc2ccccc2)CC1)N[C@H]1c2ccccc2SC[C@@H]2CCCC[C@H]21` are within 1.5-fold of each other in Kb: 0.0977 µM for the first, 0.0724 µM for the second.

First: O=C(CCCN1CCN(Cc2ccc(O)cc2)CC1)N[C@H]1c2ccccc2SC[C@@H]2CCCC[C@H]21
Second: O=C(CCCN1CCN(Cc2ccc(Cl)cc2)CC1)N[C@H]1c2ccccc2SC[C@@H]2CCCC[C@H]21
The Kb of the first is 2.6-fold higher: 0.0708 µM for the first, 0.0269 µM for the second.

Going from `O=C(CCCN1CCN(c2ccc(C(F)(F)F)cc2)CC1)N[C@H]1c2ccccc2SC[C@@H]2CCCC[C@H]21` to `Cc1ccc2c(c1)[C@H](NC(=O)CCCN1CCN(c3ccc(F)cc3)CC1)[C@@H]1CCCC[C@H]1CS2`, the Kb rises from 0.00891 µM to 0.141 µM (16-fold).

`CN(C(=O)CCN1CCN(c2ccccc2)CC1)[C@H]1c2ccccc2SC[C@@H]2CCCC[C@H]21` and `c1ccc(N2CCN(CCCN[C@H]3c4ccccc4SC[C@@H]4CCCC[C@H]43)CC2)cc1` are within 1.5-fold of each other in Kb: 0.148 µM for the first, 0.158 µM for the second.

`O=C(CCCN1CCN(C2CCCCC2)CC1)N[C@H]1c2ccccc2SC[C@@H]2CCCC[C@H]21` and `COc1ccc(CN2CCN(CCCC(=O)N[C@H]3c4ccccc4SC[C@@H]4CCCC[C@H]43)CC2)cc1` are within 1.5-fold of each other in Kb: 0.0457 µM for the first, 0.0562 µM for the second.

Compared with `COc1ccc2c(c1)[C@H](NC(=O)CCCN1CCN(c3ccc(F)cc3)CC1)[C@@H]1CCCC[C@H]1CS2`, `O=C(CCCN1CCN(c2ccc(F)cc2)CC1)N[C@H]1c2ccccc2[S+]([O-])C[C@@H]2CCCC[C@H]21` (stereo in doubt; 49) is 19-fold higher in Kb: 0.017 µM for the first, 0.324 µM for the second.
